Results on 1 substance are retold here after patent publication US20070212772A1, “RHIZOBIUM LEGUMINOSARUM STRAIN AND USE THEREOF AS PLANT INOCULANT” (priority 2005, published 2007).

The test system of this experiment is pea (cultivar 'Mozart'). Kind of experiment: Growth chamber pot test of Rhizobium strains on pea, biomass and nitrogen in plant tissue (Experiment 1). The settings on record: 35 days; for % Nitrogen: shoot tissue. It counts as in vivo. Also on record: Total Nitrogen per Shoot: unit not given here. The protocol: • 1) To evaluate eight previously untested Rhizobium strains for their ability to enhance biomass accumulation and nitrogen in legume plant tissue. These eight strains are evaluated against known strains PBI #108 and PBI#101. Note that PBI #108 is a commercial strain of Rhizobium leguminosarum that can be obtained from the Australian Legume Inoculants Research Unit of the New South Wales Agriculture Horticultural Research & Advisory Station, Locked Bag 26, Gosford, New South Wales, 2250, Australia under the deposit number ALIRU SU303. PBI #101 is a strain available from the USDA under deposit number 2449. Experimental Design: Factorial Design: 2 Soil Types (Aberdeen soil, Kyle soil) • 1 Pea seed Cultivar (‘Mozart’) • 12 Seed Treatments (Uninoculated, Nitrogen, Eight untested strains, PBI #108, PBI #101) • Randomized Block. Strain Selection Criteria: • 1) Collected field soil was sifted through a ¼ inch screen to remove any lumps of soil, roots, other plant material, sticks, etc. The soil was then spread out to dry for a period of one week and then placed into plastic bins until needed. • 2) Pots (4-½ inch×5 inch deep) were then labeled according to treatment. A sterile square pieces of spun polyester (black landscape fabric) was then placed into the bottom of each of the pots to prevent the sand/soil mixture from draining out through the pots drainage holes. • 3) A 50% mixture of Kyle soil/silica sand or 50% Aberdeen soil/silica sand (Unimum Industries—industrial quartz) was used as a potting media. • 4) After filling each pot with the sand/soil mixture each pot was placed into a large plastic Ziploc™ bag. • 5) One day before seeding each pot was watered with 150 ml of tap water (non-sterile) and the bags were sealed until seeded. • 6) On the day of seeding 5.5 kg of pea seed—cultivar ‘Mozart’—was divided up into eleven 500 gram amounts and surfaced sterilized via the following method: • a) Place 500 grams of seed into a 2 liter glass Erlenmeyer flask • b) Cover the seeds with 95% Ethanol, let stand 60 seconds then drain. • c) Add a fresh preparation of a 50% bleach solution (1000 mls into 1000 mls water-2.6% NaOCl active), add seed, shake and let stand 5 minutes, then drain. • d) Rinse with 4 changes of R.O. water (non-sterile) followed by one rinse with sterile R.O. water. • 7) After surface sterilization each 500 g amount of seed was spread into an aluminum foil pan lined with sterile paper towel and blotted dry and then transferred into clean large Ziploc™ bags. • 8) After inoculation uninoculated and inoculated pea seeds were planted. Five pea seeds were placed into each pot 2 inches below the surface. Spoons and forceps used to plant the seed were washed and dried thoroughly between treatments. 9) The bags were then sealed and placed into a growth chamber that was set for the following conditions: [table] • 10) Each pot was placed into a plastic bin in a randomized block design (two bins contained one pot of each of the 24 treatments). A total of 20 bins were used to hold all of the treatments. Three times a week (Monday's, Wednesdays and Fridays) each plastic bin was moved one bin position to the right. This was done to ensure differences in light intensity/quality or temperature were consistent for each of the treatments inside the growth chamber. • 11) Bags were kept fully closed until 50% emergence was observed, then fully opened. • 12) Plants were checked daily and watered as required using tap water. • 13) After 35 days plants were photographed (digital image file) and then harvested.

As to Nitrogen, under “Aberdeen soil”, the “Shoot dry weights (mean)” value is 0.45 grams per shoot, the “Total Nitrogen per Shoot” value turned out to be 0.0144 and the “% Nitrogen” value is 3.18%. In addition, for the setting “Kyle soil”, the “Shoot dry weights (mean)” value was 0.46 grams per shoot, the “Total Nitrogen per Shoot” value was found to be 0.0131 and the “% Nitrogen” value was 2.80%. For the same substance, where the note is “Kyle soil, ranked from darkest green (1) to yellow/green (12)”, the “Visual Assessment of Plant Color, Ranking Based on Color” value worked out at 1.
